# “Also recorded” adds a separate entry of the source. Structures can show the parent of a compound that is named as a salt.
# Experiments:
# TNF α [1] = assay: TNF α levels in serum (mouse TNF-α ELISA); type: in vivo
# Experimental: Mice were treated with 20 mg/kg ADR or saline as control. Blood samples were collected at 1, 3, 6, 9, 24 hours and allowed to clot at 2-8° C. overnight. Serum samples were used to measure TNF α levels, according to the mouse enzyme-linked immunosorbent assay following the manufacturers' instructions (mouse TNF-α/TNFSF1A immunoassay, R&D Systems, Minneapolis, MN). The TNF α concentration in the sample was calculated from a recombinant mouse TNF α standard curve. The minimum detection limit is typically less than 5.1 pg/mL.
# 8-week-old male B6C3 mice (25-30 g) were kept under standard conditions. Mice were injected with a single intraperitoneal (i.p.) treatment with adriamycin (doxorubicin hydrochloride, 20 mg/kg), TNF-α, anti-mouse TNF-antibody (40 ng/kg), dipropylenetriamine NONOate (DPTA NONOate, […]), lipopolysaccharide (LPS 1 mg/kg), NG-nitro-L-arginine-methyl esther (L-NAME, 10 mg/kg) or pre-immune IgG.
# Mice were treated with 20 mg/kg ADR, TNF-α, anti-mouse TNF-antibody, dipropylenetriamine NONOate, lipopolysaccharide, NG-nitro-L-arginine-methyl esther or pre-immune IgG, as well as saline as control. Blood samples were collected at 3 hours after ADR treatment and allowed to clot at 2-8° C. overnight. Serum samples were used to measure TNF levels, according to the mouse enzyme-linked immunosorbent assay following the manufacturers' instructions (mouse TNF-α/TNFSF1A immunoassay, R&D Systems, Minneapolis, Minn.). The TNF concentration in the sample was calculated from a recombinant mouse TNF standard curve. The minimum detection limit is typically less than 5.1 pg/mL.
# TNF α [2] = assay: Immunofluorescence of TNF α localization in neurons of cortex and hippocampus (MAP2 co-staining); type: in vivo, mouse; settings: 3 hours after 20 mg/kg ADR, vs saline; hydrochloride
# Experimental: Brain tissue slices were fixed in 4% paraformaldehyde for 15 minutes, air dried, and washed with PBS. Non-specific proteins were blocked in blocking serum, consisting of 3% normal donkey's serum, and 0.3% Triton x-100 in PBS, and incubated at room temperature for 30 minutes. After blocking, slices were incubated with primary anti-TNF α (Upstate, Lake Placid, N.Y.), and anti-MAP2 antibody (Chemicon, Temecula, Calif.) was used as a neuronal marker, in order to study the location of TNF α in neurons of cortical and hippocampal regions. The sections were kept in a humidified box at 4° C. overnight. Tissues were washed three times with PBS and then were incubated for 1 hour with donkey antibody-conjugated secondary antibodies coated with fluorescent dyes. Excess secondary antibodies were removed by washing three times in PBS and once with deionized H2O. Tissue slides were mounted with mounting medium (Vectashield, HOURS-100, Vector Laboratories, Burlingame, Calif.). Photomicrographs were obtained using a Leica confocal fluorescence microscope (Leica Microsystems Inc., Bannockburn, Ill., USA).
# p53 and Bcl-xL complex = assay: Co-immunoprecipitation of p53 with Bcl-xL in brain mitochondria; type: in vivo, mouse; settings: after ADR, vs saline control; hydrochloride
# Experimental: Isolated mitochondrial protein (500 μg) was resuspended in 500 μL RIPA buffer (9.1 mM Na2HPO4, 1.7 mM NaH2PO4, 150 mM NaCl, 0.5% sodium deoxycholate, 1% v/v Nonidet P40, 0.1% sodium dodecyl sulfate, pH 7.2). Protease inhibitors (0.1 mg PMSF and 1 μg aprotinin per mL RIPA) were added at the time of use followed by incubation with 5 μg/mL of mouse p53 antibody (Ab-11, Oncogene) at 4° C. overnight. Protein A/G-Agarose (50 μL) was added to the reaction mixture with the antibody. Immunocomplexes were collected by centrifugation at 1,000×g at 4° C. for 5 minutes, then washed four times with RIPA buffer. Immunoprecipitated samples were recovered by resuspending in 2×sample loading buffer, and p53 or Bcl-xL (Santa Cruz Biotechnology, Santa Cruz, Calif.) proteins were detected by Western blot. Immunoreactivity was evaluated on immunoblots by densitrometric analysis using a Bio-RAD densitometer (Bio-RAD Laboratory, Inc, Hercules, Calif., USA).
# caspase 3 = assay: Caspase 3 activity in brain tissues; type: in vivo, mouse; settings: 3 and 72 hours after 20 mg/kg ADR; hydrochloride
# [3] = system: cortical and hippocampal cells; assay: TUNEL-positive apoptotic cell death in cortical and hippocampal regions; type: in vivo, mouse; settings: 3 and 72 hours after ADR, vs saline
# Experimental: (A) Brain cryosection tissues were treated with biotinylated rTdT, followed by streptavidin peroxidase and diaminobenzidine-hydrogen peroxide, and counterstained with methyl-green. […] (For interpretation of the references to colour in this figure legend, the reader is referred to the web version of this article.)
# MnSOD = assay: Nitration of MnSOD (immunoprecipitation and western blot); type: in vivo, mouse; settings: hydrochloride
# Experimental: Solubilized isolated mitochondrial proteins (500 μg) in 500 μL RIPA buffer (9.1 mM Na2HPO4, 1.7 mM NaH2PO4, 150 mM NaCl, 0.5% sodium deoxycholate, 1% v/v Nonidet P40, 0.1% SDS, pH 7.2) were incubated for 16 hours at 4° C. with 10 μg/mL anti-nitrotyrosine antibody (Cayman Chemical, Ann Arbor, Mich., USA) or polyclonal anti-MnSOD antibody (Upstate Biotechnology). Immune complexes were precipitated with 50 μL protein A/G-Agarose. Immunocomplexes were collected by centrifugation at 1500 g for 5 minutes at 4° C., and then washed four times with RIPA buffer. Immunoprecipitated samples were recovered by resuspending in 50 μL 2×sample loading buffer, heated to 95° C. for 5 minutes, and immediately fractionated by reducing SDS-PAGE in 12.5% gels. […] Immunoreactivities of the MnSOD nitrated protein bands were detected by ECL (Amersham Phamacia Biotech) as described by the manufacturer. Nitration of MnSOD was quantified using an akaline phosphatase-linked secondary antibody (Sigma), as described previously (Sultana et al. 2004), and evaluated by densitometric analysis used a Bio-Rad densitometer (Bio-Rad Laboratories, Hercules, Calif., USA).
# [4] = in vivo; cited from earlier work
# [5] = system: mitochondrial respiration complex I; assay: Brain mitochondrial respiration, complex I (pyruvate + malate), respiration control ratio; settings: 3 hours after treatment, hydrochloride
# Experimental: Mice were perfused via cardiac puncture with cold mitochondrial isolation buffer, the brain promptly removed, the cerebellum dissected away, and mitochondria immediately isolated from the freshly brain by a modification of the method described by Mattiazzi et al. (2002). Brain mitochondria were isolated in cold mitochondrial isolation buffer, containing 0.07 M sucrose, 0.22 M mannitol, 20 mM HEPES, 1 mM EGTA, and 1% bovine serum albumin, pH 7.2. Tissues were homogenized with a Dounce homogenizer and centrifuged at 1,500×g at 4° C. for 5 minutes before transferring the supernatant. The pellets were resuspended and centrifuged at 1,500×g at 4° C. for 5 minutes. The supernatants were combined and centrifuged at 13,500×g at 4° C. for 10 minutes. Mitochondrial pellets were washed twice and finally resuspended in 50-100 μL cold isolation buffer. Protein concentration of isolated mitochondria was determined by the Bradford assay (Bradford, 1976). The final protein concentration was 20-40 mg/ml.
# Mitochondrial respiration was determined using Clark-type polarographic oxygen sensors (Hansatech Instruments, Kings Lynn, Norfolk, UK) to measure the rate of oxygen consumption. Freshly isolated mitochondria were suspended in respiration buffer at a concentration of 0.5 mg mitochondrial protein per mL of respiration buffer, which consists of 0.25 M sucrose, 50 mM HEPES, 1 mM EGTA, 10 mM KH2PO4, and 2 mM MgCl2, pH 7.4. Oxygen consumption was measured with either pyruvate (10 mM) plus malate (10 mM) or succinate (10 mM) as substrates for respiration from complex I or complex II in the absence of exogenous ADP (state II) and after addition of 300 mM ADP (state III respiration). Rotenone (5 μM) was added to the reaction to inhibit respiration from complex I when succinate was used as the substrate. […] FCCP (1 μM), an uncoupling agent, was added as a control of respiration. Respiration control ratios (RCR) were calculated as the ratios of state III and state II respiration as described previously by Estabrook (1967). The unit for state II rate and state III rate is nmole/min/mg protein.
# Mice were perfused via cardiac puncture with cold mitochondrial isolation buffer, the brain promptly removed, the cerebellum dissected away, and mitochondria immediately isolated from the freshly brain by a modification of the method described by Mattiazzi et al. (2002). Brain mitochondria were isolated in cold mitochondrial isolation buffer, containing 0.07 M sucrose, 0.22 M mannitol, 20 mM HEPES, 1 mM EGTA, and 1% bovine serum albumin, pH 7.2. Tissues were homogenized with a Dounce homogenizer and centrifuged at 1,500×g at 4° C. for 3 minutes before transferring the supernatant fluid. The pellets were resuspended and centrifuged at 1,500×g at 4° C. for 3 minutes. The supernatant fluids were combined and centrifuged at 1,500×g at 4° C. for 3 minutes. These supernatant fluids were then centrifuged at 13,500×g at 4° C. for 10 minutes. Mitochondrial pellets were washed twice and finally resuspended in 50-100 μL cold isolation buffer. Protein concentration of isolated mitochondria was determined by the Bradford assay (Bradford, 1976).
# Mitochondrial respiration was determined using Clark-type polarographic oxygen sensors (Hansatech Instruments, UK) to measure the rate of oxygen consumption. Freshly-isolated mitochondria were suspended in respiration buffer at a concentration of 0.5 mg mitochondrial protein/mL respiration buffer, which consisted of 0.25 M sucrose, 50 mM HEPES, 1 mM EGTA, 10 mM KH2PO4, 2 mM MgCl2 and 0.2% BSA, pH 7.4. Oxygen consumption was measured with either pyruvate (10 mM) or pyruvate plus malate (10 mM) as substrates for respiration from complex I, in the absence of exogenous ADP (state II), and after addition of 300 mM ADP (state III respiration). […] FCCP (1 μM), an uncoupling agent, was added as a control respiration. Respiration control ratios (RCR) were calculated as the ratios of state III and state II respiration.
compound,measurement,setting,value
"COc1cccc2c1C(=O)c1c(O)c3c(c(O)c1C2=O)C[C@@](O)(C(=O)CO)C[C@@H]3O[C@H]1C[C@H](N)[C@H](O)[C@H](C)O1 [ADR, Doxorubicin hydrochloride]",Time course of increased serum TNF α,"TNF α [1]; 20 mg/kg ADR, blood at 1, 3, 6, 9, 24 hours, hydrochloride",detectable as early as 1 hour and were sustained throughout a 24 hour period; also recorded: increased at the earliest time point examined
same,TNF-α level in serum (circulating TNF-α),"TNF α [1]; iNOSKO mice, 3 hours after treatment",significantly elevated
same,TNF α level in serum (circulating TNF α),"TNF α [1]; wild-type mice, 3 hours after single i.p. treatment, vs saline control, hydrochloride",significantly higher; also recorded: significantly elevated
same,TNF α in neurons of cortex,TNF α [2],clearly were increased
same,TNF α in neurons of hippocampus,TNF α [2],clearly were increased
same,p53 and Bcl-xL complex in brain mitochondria (Bcl-xL bands after anti-p53 immunoprecipitation),p53 and Bcl-xL complex,specific increases of p53 and Bcl-xL; also recorded: increased at 3 hours
same,Caspase 3 activity in brain tissues,caspase 3,significantly increased; also recorded: increased at 72 hours compared with 3 hours
same,TUNEL-positive apoptotic cells in cortex and hippocampus,[3],increased number of apoptotic cells
same,"Expression of immunoprecipitated MnSOD protein, control vs ADR-treated brain mitochondria",MnSOD; immunoprecipitation with anti-MnSOD antibody,no difference in expression; also recorded: No significant difference
same,Nitrated MnSOD (nitrotyrosine in MnSOD) in brain mitochondria,"MnSOD; wild-type mice, 3 hours after ADR 20 mg/kg",an increase of nitrated MnSOD; also recorded: significant increase in nitration of MnSOD; also recorded: significantly increased protein nitration
same,Crossing of the blood brain barrier,[4],does not cross the blood brain barrier
same,Brain mitochondrial respiration complex I (RCR),[5]; iNOSKO mice,no effect; also recorded: not in iNOSKO mice
same,"Brain mitochondrial respiration complex I (RCR, state III / state II)","[5]; wild-type mice, vs saline control",significantly decreased; also recorded: decline

# Reference: patent US20080131432A1, “Method of treating the chemotoxic effects of chemotherapeutic drugs on brain tissue” (University of Kentucky Research Foundation, priority 2005, published 2008)
